Measured values published in PubChem BioAssay AID2060616 (Molecular Pharmacology Branch, DTP, NCI, 2025).
pIC50: −log10 of the molar value.

Test system: 377384-186-R-J1-PDC complex spheroid viability
Assay: Anticancer human tumor 377384-186-R-J1-PDC patient-derived pancreatic carcinoma cell line growth inhibition [CLK]
Conditions: for pIC50: curve of first compound; for viability, T/C: stronger effect = lower value
How it was run: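 Multi-cell-type spheroids combined patient-derived tumor cells with HUVEC endothelial cells and human mesenchymal stem cells. Paired agents were dosed in half-log steps down from about clinical Cmax, or from 10 microM where Cmax was unknown.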

[1] = second compound 0.0316 µM, first compound 0.00949 µM
[2] = second compound 0.0316 µM, first compound 0.03 µM
[3] = second compound 0.0316 µM, first compound 0.0949 µM
[4] = second compound 0.0316 µM, first compound 0.3 µM
[5] = second compound 0.1 µM, first compound 0.00949 µM
[6] = second compound 0.1 µM, first compound 0.03 µM
[7] = second compound 0.1 µM, first compound 0.0949 µM
[8] = second compound 0.1 µM, first compound 0.3 µM
[9] = second compound 0.316 µM, first compound 0.00949 µM
[10] = second compound 0.316 µM, first compound 0.03 µM
[11] = second compound 0.316 µM, first compound 0.0949 µM
[12] = second compound 0.316 µM, first compound 0.3 µM
[13] = second compound 1 µM, first compound 0.00949 µM
[14] = second compound 1 µM, first compound 0.03 µM
[15] = second compound 1 µM, first compound 0.0949 µM
[16] = second compound 1 µM, first compound 0.3 µM
[17] = second compound 3.16 µM, first compound 0.00949 µM
[18] = second compound 3.16 µM, first compound 0.03 µM
[19] = second compound 3.16 µM, first compound 0.0949 µM
[20] = second compound 3.16 µM, first compound 0.3 µM
[21] = second compound 10 µM, first compound 0.00949 µM
[22] = second compound 10 µM, first compound 0.03 µM
[23] = second compound 10 µM, first compound 0.0949 µM
[24] = second compound 10 µM, first compound 0.3 µM
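Also: spheroids exposed to agents for 7 days before reading.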
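For viability, T/C in this document: luminescence signal used as a stand-in for viable cells.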

In the case of `C=CC(=O)Nc1cc(Nc2nccc(-c3cn(C)c4ccccc34)n2)c(OC)cc1N(C)CCN(C)C` + CNC(=O)c1ccc(Nc2nc(OC3CCCC3)c3c(-c4ccc5nc(C)oc5c4)c[nH]c3n2)c(OC)c1, the pIC50 (second compound 0.0316 µM) was < 6.52, the pIC50 (second compound 0.1 µM) was 7.27 and the pIC50 (second compound 0.316 µM) was > 9.02. For the same compound, the pIC50 (second compound 1 µM) was > 9.02, the pIC50 (second compound 3.16 µM) was > 9.02 and the pIC50 (second compound 10 µM) was > 9.02. It also gave a viability, T/C (second compound 0.0316 µM, first compound 0.000949 µM) of 91.5%, a viability, T/C (second compound 0.0316 µM, first compound 0.003 µM) of 109% and a viability, T/C [1] of 99.2%. For the same compound, the viability, T/C [2] was 103%, the viability, T/C [3] was 86.3% and the viability, T/C [4] was 59%. It also gave a viability, T/C (second compound 0.1 µM, first compound 0.000949 µM) of 64.1%, a viability, T/C (second compound 0.1 µM, first compound 0.003 µM) of 63.5% and a viability, T/C [5] of 55.7%. It also gave a viability, T/C [6] of 59.4%, a viability, T/C [7] of 42.8% and a viability, T/C [8] of 29.7%. It also gave a viability, T/C (second compound 0.316 µM, first compound 0.000949 µM) of 20.6%, a viability, T/C (second compound 0.316 µM, first compound 0.003 µM) of 23.6% and a viability, T/C [9] of 20.6%. The viability, T/C [10] was 17.2%, the viability, T/C [11] was 17.3% and the viability, T/C [12] was 17%. It also gave a viability, T/C (second compound 1 µM, first compound 0.000949 µM) of 17.7%, a viability, T/C (second compound 1 µM, first compound 0.003 µM) of 18.1% and a viability, T/C [13] of 21.8%. The viability, T/C [14] was 19.2%, the viability, T/C [15] was 16.7% and the viability, T/C [16] was 16.7%. For the same compound, the viability, T/C (second compound 3.16 µM, first compound 0.000949 µM) was 20.1%, the viability, T/C (second compound 3.16 µM, first compound 0.003 µM) was 20.9% and the viability, T/C [17] was 21.1%. For the same compound, the viability, T/C [18] was 19.5%, the viability, T/C [19] was 17.9% and the viability, T/C [20] was 14.8%. The viability, T/C (second compound 10 µM, first compound 0.000949 µM) was 18.9%, the viability, T/C (second compound 10 µM, first compound 0.003 µM) was 21.2% and the viability, T/C [21] was 18.1%. For the same compound, the viability, T/C [22] was 19.4%, the viability, T/C [23] was 17.6% and the viability, T/C [24] was 15.3%.
In the case of `NC(=O)C(=Cn1cnc(-c2cc(C(F)(F)F)cc(C(F)(F)F)c2)n1)c1cncnc1` + CNC(=O)c1ccc(Nc2nc(OC3CCCC3)c3c(-c4ccc5nc(C)oc5c4)c[nH]c3n2)c(OC)c1, the pIC50 (second compound 0.0316 µM) was 7.28, the pIC50 (second compound 0.1 µM) was 7.91 and the pIC50 (second compound 0.316 µM) was > 8.02. For the same compound, the pIC50 (second compound 1 µM) was > 8.02, the pIC50 (second compound 3.16 µM) was > 8.02 and the pIC50 (second compound 10 µM) was > 8.02. For the same compound, the viability, T/C [1] was 97.1%, the viability, T/C [2] was 59.2% and the viability, T/C [3] was 40.4%. The viability, T/C [4] was 21.2%, the viability, T/C (second compound 0.0316 µM, first compound 0.949 µM) was 5.59% and the viability, T/C (second compound 0.0316 µM, first compound 3 µM) was 2.3%. The viability, T/C [5] was 52.9%, the viability, T/C [6] was 39.7% and the viability, T/C [7] was 25.5%. For the same compound, the viability, T/C [8] was 16.1%, the viability, T/C (second compound 0.1 µM, first compound 0.949 µM) was 3.56% and the viability, T/C (second compound 0.1 µM, first compound 3 µM) was 1.95%. The viability, T/C [9] was 19.2%, the viability, T/C [10] was 17.7% and the viability, T/C [11] was 17.1%. The viability, T/C [12] was 8.59%, the viability, T/C (second compound 0.316 µM, first compound 0.949 µM) was 2.04% and the viability, T/C (second compound 0.316 µM, first compound 3 µM) was 2.27%. The viability, T/C [13] was 18.9%, the viability, T/C [14] was 20.9% and the viability, T/C [15] was 16.2%. For the same compound, the viability, T/C [16] was 7.4%, the viability, T/C (second compound 1 µM, first compound 0.949 µM) was 1.54% and the viability, T/C (second compound 1 µM, first compound 3 µM) was 0.93%. For the same compound, the viability, T/C [17] was 18.7%, the viability, T/C [18] was 18.7% and the viability, T/C [19] was 15.5%. The viability, T/C [20] was 6.58%, the viability, T/C (second compound 3.16 µM, first compound 0.949 µM) was 1.89% and the viability, T/C (second compound 3.16 µM, first compound 3 µM) was 1.09%. The viability, T/C [21] was 21.7%, the viability, T/C [22] was 17.9% and the viability, T/C [23] was 12.8%. For the same compound, the viability, T/C [24] was 6.06%, the viability, T/C (second compound 10 µM, first compound 0.949 µM) was 1.42% and the viability, T/C (second compound 10 µM, first compound 3 µM) was 1.91%.
For `Nc1ccccc1NC(=O)c1ccc(CNC(=O)OCc2cccnc2)cc1` + CNC(=O)c1ccc(Nc2nc(OC3CCCC3)c3c(-c4ccc5nc(C)oc5c4)c[nH]c3n2)c(OC)c1, the pIC50 (second compound 0.0316 µM) was 6.36, the pIC50 (second compound 0.1 µM) was 6.89 and the pIC50 (second compound 0.316 µM) was > 7.50. For the same compound, the pIC50 (second compound 1 µM) was > 7.50, the pIC50 (second compound 3.16 µM) was > 7.50 and the pIC50 (second compound 10 µM) was > 7.50. The viability, T/C (second compound 0.0316 µM, first compound 0.0316 µM) was 94.4%, the viability, T/C (second compound 0.0316 µM, first compound 0.1 µM) was 75.5% and the viability, T/C (second compound 0.0316 µM, first compound 0.316 µM) was 62.5%. For the same compound, the viability, T/C (second compound 0.0316 µM, first compound 1 µM) was 26.7%, the viability, T/C (second compound 0.0316 µM, first compound 3.16 µM) was 11.9% and the viability, T/C (second compound 0.0316 µM, first compound 10 µM) was 1.2%. The viability, T/C (second compound 0.1 µM, first compound 0.0316 µM) was 57.9%, the viability, T/C (second compound 0.1 µM, first compound 0.1 µM) was 57.2% and the viability, T/C (second compound 0.1 µM, first compound 0.316 µM) was 35.9%. The viability, T/C (second compound 0.1 µM, first compound 1 µM) was 30.2%, the viability, T/C (second compound 0.1 µM, first compound 3.16 µM) was 12.3% and the viability, T/C (second compound 0.1 µM, first compound 10 µM) was 1.53%. For the same compound, the viability, T/C (second compound 0.316 µM, first compound 0.0316 µM) was 24.8%, the viability, T/C (second compound 0.316 µM, first compound 0.1 µM) was 23.2% and the viability, T/C (second compound 0.316 µM, first compound 0.316 µM) was 18%. The viability, T/C (second compound 0.316 µM, first compound 1 µM) was 19.4%, the viability, T/C (second compound 0.316 µM, first compound 3.16 µM) was 9.99% and the viability, T/C (second compound 0.316 µM, first compound 10 µM) was 1.4%. It also gave a viability, T/C (second compound 1 µM, first compound 0.0316 µM) of 22.6%, a viability, T/C (second compound 1 µM, first compound 0.1 µM) of 23% and a viability, T/C (second compound 1 µM, first compound 0.316 µM) of 19.7%. It also gave a viability, T/C (second compound 1 µM, first compound 1 µM) of 21.5%, a viability, T/C (second compound 1 µM, first compound 3.16 µM) of 12.6% and a viability, T/C (second compound 1 µM, first compound 10 µM) of 1.83%. For the same compound, the viability, T/C (second compound 3.16 µM, first compound 0.0316 µM) was 20.9%, the viability, T/C (second compound 3.16 µM, first compound 0.1 µM) was 21.6% and the viability, T/C (second compound 3.16 µM, first compound 0.316 µM) was 21.7%. For the same compound, the viability, T/C (second compound 3.16 µM, first compound 1 µM) was 16.9%, the viability, T/C (second compound 3.16 µM, first compound 3.16 µM) was 12.1% and the viability, T/C (second compound 3.16 µM, first compound 10 µM) was 0.82%. For the same compound, the viability, T/C (second compound 10 µM, first compound 0.0316 µM) was 20.6%, the viability, T/C (second compound 10 µM, first compound 0.1 µM) was 22.9% and the viability, T/C (second compound 10 µM, first compound 0.316 µM) was 19%. The viability, T/C (second compound 10 µM, first compound 1 µM) was 18.6%, the viability, T/C (second compound 10 µM, first compound 3.16 µM) was 13.7% and the viability, T/C (second compound 10 µM, first compound 10 µM) was 1.29%.
